Among the data in ChEMBL document CHEMBL3991601, “The target landscape of clinical kinase drugs” (Science, 2017) are Kd values, retold here.

For test [1], the target named is T1, Protein kinase C zeta type (Homo sapiens, UniProt Q05513).
T1 sequence (Q05513 whole entry): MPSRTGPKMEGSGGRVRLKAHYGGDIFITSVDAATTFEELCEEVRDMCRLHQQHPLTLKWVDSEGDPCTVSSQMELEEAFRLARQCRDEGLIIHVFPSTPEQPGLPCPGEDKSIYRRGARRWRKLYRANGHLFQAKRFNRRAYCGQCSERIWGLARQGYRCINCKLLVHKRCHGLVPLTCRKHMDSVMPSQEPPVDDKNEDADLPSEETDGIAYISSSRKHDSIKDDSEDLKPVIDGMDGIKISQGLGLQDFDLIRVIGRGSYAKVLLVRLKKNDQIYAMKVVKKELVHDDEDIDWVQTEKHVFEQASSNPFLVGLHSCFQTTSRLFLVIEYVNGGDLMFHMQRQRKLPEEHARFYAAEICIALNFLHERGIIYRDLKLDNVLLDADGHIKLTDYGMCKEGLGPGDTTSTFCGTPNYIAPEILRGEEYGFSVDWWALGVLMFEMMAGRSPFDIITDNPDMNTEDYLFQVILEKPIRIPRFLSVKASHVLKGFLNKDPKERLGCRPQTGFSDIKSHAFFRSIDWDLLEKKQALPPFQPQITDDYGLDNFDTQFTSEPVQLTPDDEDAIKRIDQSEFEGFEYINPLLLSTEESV

The target in test [2] is Dual specificity testis-specific protein kinase 2 (Homo sapiens, UniProt Q96S53).
Sequence of Dual specificity testis-specific protein kinase 2 (Q96S53 whole entry): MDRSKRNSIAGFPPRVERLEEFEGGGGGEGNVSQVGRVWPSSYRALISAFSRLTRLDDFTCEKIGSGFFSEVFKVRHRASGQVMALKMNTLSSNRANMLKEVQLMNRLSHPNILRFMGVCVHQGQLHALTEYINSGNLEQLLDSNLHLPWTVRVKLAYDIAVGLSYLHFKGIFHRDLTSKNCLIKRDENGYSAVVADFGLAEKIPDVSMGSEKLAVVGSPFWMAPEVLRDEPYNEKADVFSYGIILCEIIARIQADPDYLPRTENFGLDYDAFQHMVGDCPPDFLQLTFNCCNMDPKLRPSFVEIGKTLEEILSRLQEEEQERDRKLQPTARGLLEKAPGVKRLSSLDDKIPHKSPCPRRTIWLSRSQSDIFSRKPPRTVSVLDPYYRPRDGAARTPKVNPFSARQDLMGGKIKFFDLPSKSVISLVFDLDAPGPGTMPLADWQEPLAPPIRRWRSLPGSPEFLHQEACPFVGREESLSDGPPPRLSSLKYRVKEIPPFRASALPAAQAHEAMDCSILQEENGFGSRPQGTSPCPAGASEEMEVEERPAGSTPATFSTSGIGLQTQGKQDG
The next test has as its target Misshapen-like kinase 1 (Homo sapiens, UniProt Q8N4C8).
A further test has as its target T2, UMP-CMP kinase (Homo sapiens, UniProt P30085).
T2 sequence (P30085 whole entry): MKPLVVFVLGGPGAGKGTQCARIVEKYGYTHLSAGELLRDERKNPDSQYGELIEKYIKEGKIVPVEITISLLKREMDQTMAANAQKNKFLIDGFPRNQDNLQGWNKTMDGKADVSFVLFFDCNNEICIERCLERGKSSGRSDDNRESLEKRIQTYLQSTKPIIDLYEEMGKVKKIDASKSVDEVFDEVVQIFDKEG

The target in test [3] is Choline-phosphate cytidylyltransferase A (Homo sapiens, UniProt P49585).
Sequence of Choline-phosphate cytidylyltransferase A (P49585 whole entry): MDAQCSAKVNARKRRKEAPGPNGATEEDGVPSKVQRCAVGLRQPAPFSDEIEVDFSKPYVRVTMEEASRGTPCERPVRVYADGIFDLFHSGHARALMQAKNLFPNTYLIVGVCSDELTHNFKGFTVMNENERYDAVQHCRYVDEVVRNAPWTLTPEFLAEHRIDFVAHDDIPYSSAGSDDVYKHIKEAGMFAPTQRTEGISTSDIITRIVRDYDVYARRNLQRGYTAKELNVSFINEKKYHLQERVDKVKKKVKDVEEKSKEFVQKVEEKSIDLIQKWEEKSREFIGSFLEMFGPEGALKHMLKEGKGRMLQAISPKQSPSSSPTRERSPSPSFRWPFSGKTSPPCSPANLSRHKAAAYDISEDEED
Test [4] deals with Dual specificity protein kinase CLK3 (Homo sapiens, UniProt P49761). The class given is subcellular, K-562, COLO 205, SK-N-BE(2) and MV-4-11, Cell lysate. To be noted: read-out: Kd apparent.
Sequence of Dual specificity protein kinase CLK3 (P49761 whole entry): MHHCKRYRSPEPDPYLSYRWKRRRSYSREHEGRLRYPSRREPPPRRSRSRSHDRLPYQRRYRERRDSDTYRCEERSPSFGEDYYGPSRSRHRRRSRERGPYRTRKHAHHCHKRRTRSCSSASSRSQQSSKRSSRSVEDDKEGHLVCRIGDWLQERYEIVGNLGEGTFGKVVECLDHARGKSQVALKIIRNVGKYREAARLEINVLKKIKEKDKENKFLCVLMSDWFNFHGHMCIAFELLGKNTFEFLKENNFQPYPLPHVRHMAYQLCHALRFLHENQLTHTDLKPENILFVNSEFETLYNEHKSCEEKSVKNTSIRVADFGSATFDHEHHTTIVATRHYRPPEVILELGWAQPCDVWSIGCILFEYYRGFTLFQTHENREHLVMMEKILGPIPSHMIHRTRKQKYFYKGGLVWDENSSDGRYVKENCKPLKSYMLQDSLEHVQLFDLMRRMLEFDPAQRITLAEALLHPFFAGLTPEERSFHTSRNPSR
Test [5] deals with Serine/threonine-protein kinase PLK1 (Homo sapiens, UniProt P53350).
Sequence of Serine/threonine-protein kinase PLK1 (P53350 whole entry, the tested form may be a part): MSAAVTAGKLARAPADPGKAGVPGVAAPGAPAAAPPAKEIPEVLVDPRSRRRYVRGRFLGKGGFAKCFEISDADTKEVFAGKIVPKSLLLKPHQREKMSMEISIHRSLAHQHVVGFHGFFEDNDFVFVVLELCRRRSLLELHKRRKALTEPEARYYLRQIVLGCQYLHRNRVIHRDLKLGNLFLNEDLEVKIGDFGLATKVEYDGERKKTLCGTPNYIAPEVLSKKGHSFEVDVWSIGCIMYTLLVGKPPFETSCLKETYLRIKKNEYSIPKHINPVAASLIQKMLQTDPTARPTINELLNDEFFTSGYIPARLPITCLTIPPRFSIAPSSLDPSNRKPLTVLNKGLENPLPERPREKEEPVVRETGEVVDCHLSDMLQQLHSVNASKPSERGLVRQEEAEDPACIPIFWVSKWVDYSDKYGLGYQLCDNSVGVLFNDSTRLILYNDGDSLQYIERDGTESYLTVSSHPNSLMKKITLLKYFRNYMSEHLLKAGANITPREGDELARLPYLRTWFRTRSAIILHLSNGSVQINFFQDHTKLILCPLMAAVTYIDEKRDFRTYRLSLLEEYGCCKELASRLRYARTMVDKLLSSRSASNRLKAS
In test [6] the target is Uncharacterized aarF domain-containing protein kinase 5 (Homo sapiens, UniProt Q3MIX3).
Sequence of Uncharacterized aarF domain-containing protein kinase 5 (Q3MIX3 whole entry, the tested form may be a part): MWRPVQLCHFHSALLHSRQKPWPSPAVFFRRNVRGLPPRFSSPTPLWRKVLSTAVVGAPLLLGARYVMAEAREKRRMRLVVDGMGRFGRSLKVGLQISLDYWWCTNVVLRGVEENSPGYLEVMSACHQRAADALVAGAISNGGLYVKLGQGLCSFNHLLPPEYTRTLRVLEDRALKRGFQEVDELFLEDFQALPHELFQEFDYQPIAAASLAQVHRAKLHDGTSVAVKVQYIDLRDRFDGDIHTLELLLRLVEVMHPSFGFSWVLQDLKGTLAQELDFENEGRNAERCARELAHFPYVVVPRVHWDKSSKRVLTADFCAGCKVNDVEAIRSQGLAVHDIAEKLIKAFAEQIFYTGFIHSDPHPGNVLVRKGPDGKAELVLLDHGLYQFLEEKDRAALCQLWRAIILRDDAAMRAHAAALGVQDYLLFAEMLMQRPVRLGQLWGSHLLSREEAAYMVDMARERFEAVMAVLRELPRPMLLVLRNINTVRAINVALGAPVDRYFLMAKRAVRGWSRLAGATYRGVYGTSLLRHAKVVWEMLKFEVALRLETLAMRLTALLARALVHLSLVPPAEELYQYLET

Counter-ions that a name gives are not always drawn. The source made the active and inactive calls. On the calls: in the data inactive means no Kd found up to 30 µM.

Sequence of Misshapen-like kinase 1 (Q8N4C8 whole entry): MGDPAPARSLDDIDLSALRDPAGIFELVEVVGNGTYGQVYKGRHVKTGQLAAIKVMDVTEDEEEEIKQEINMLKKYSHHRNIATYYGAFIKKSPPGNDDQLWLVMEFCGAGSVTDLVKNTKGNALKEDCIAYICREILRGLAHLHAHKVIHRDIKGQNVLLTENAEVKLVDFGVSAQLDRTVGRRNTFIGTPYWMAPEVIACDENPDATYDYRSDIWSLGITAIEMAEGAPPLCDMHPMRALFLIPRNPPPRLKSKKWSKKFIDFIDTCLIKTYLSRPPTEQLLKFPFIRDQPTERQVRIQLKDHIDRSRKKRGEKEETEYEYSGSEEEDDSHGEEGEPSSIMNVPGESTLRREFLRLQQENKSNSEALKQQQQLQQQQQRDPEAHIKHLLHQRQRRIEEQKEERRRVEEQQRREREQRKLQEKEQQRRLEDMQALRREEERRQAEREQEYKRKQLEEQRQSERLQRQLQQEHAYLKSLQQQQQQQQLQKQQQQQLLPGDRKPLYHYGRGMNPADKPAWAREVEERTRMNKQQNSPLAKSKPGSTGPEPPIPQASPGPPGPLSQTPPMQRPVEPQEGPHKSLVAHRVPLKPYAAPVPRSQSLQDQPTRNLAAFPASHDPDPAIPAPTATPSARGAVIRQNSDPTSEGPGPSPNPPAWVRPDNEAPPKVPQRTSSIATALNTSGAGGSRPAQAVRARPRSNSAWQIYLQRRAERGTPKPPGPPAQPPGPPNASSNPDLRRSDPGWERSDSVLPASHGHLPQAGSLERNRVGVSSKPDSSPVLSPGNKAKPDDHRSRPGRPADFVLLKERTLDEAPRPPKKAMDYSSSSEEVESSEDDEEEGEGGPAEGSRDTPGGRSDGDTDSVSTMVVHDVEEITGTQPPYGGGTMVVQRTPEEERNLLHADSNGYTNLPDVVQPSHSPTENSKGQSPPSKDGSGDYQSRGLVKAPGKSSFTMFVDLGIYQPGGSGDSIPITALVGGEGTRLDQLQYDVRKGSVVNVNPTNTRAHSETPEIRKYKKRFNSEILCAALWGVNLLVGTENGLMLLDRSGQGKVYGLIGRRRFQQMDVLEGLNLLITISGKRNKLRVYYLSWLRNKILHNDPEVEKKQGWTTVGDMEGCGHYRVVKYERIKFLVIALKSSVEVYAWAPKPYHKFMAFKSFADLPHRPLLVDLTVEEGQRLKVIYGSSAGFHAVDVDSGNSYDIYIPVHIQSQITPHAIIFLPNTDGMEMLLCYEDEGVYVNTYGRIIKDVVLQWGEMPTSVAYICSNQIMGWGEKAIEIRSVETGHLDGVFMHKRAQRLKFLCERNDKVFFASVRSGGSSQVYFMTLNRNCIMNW

For `C[C@H]1CNCCCN1S(=O)(=O)c1cccc2cncc(F)c12`, the Kd (in test [1]; in test [2]; on Misshapen-like kinase 1) was > 30 µM (inactive) in each case.

In the case of `CC(=O)c1cnc2ccc(-c3cc(Cl)c(O)c(Cl)c3)nc2c1N[C@H]1CC[C@H](CN(C)C)CC1`, the Kd (at UMP-CMP kinase; in test [3]) was > 30 µM (inactive) throughout.

Regarding `CCNC(=O)C#Cc1ccc2c(c1)NC(=O)/C2=C(\Nc1ccc(CN(C)C)cc1)c1ccccc1`, the Kd (in test [1]; in test [4]; on Misshapen-like kinase 1) was > 30 µM (inactive) in each case.

Take `COCc1c(-c2ccc(NC(=O)Nc3cc(C(F)(F)F)ccc3F)c(F)c2)c2c(N)ncnn2c1CN1CCOCC1`: in test [5], the Kd was > 30 µM (inactive).

As for `COc1cc(Nc2ncc3c(n2)-c2ccc(Cl)cc2C(c2c(F)cccc2OC)=NC3)ccc1C(=O)O` [ALISERTIB], the Kd (in test [2]; on UMP-CMP kinase; in test [6]) was > 30 µM (inactive) throughout.

Take `Cc1nc(NC(=O)N2CCC[C@H]2C(N)=O)sc1-c1ccnc(C(C)(C)C(F)(F)F)c1` [ALPELISIB]: the Kd at Misshapen-like kinase 1 and at UMP-CMP kinase was > 30 µM (inactive) throughout.

Turning to `O=C(Nc1c[nH]nc1-c1nc2cc(CN3CCOCC3)ccc2[nH]1)NC1CC1` [AT-9283], the Kd (in test [4]; in test [2]; in test [5]; at Misshapen-like kinase 1; on UMP-CMP kinase; in test [3]) was > 30 µM (inactive) each time. In addition, the Kd in test [6] was > 30 µM (inactive).

Regarding `C=CC(=O)Nc1cc2c(Nc3ccc(F)c(Cl)c3)ncnc2cc1C#CC(C)(C)N1CCN(C)CC1` [AV-412 FREE BASE], the Kd in test [1], in test [2] and in test [6] was > 30 µM (inactive) throughout.

Turning to `CNC(=O)c1ccccc1Sc1ccc2c(/C=C/c3ccccn3)n[nH]c2c1` [AXITINIB], the Kd (in test [1]; on UMP-CMP kinase; in test [3]) was > 30 µM (inactive) in each case.

For `COc1cc([C@@H]2c3cc4c(cc3[C@H](O)[C@H]3COC(=O)[C@@H]23)OCO4)cc(OC)c1OC` [AXL-1717], on UMP-CMP kinase, the Kd was > 30 µM (inactive).

`NC(=O)Nc1cc(-c2cccc(F)c2)sc1C(=O)N[C@H]1CCCNC1` [AZD-7762]: the Kd (in test [4]; in test [2]; on UMP-CMP kinase; in test [6]) was > 30 µM (inactive) throughout.

Regarding `Cc1cc(C(=O)NOCCO)c(Nc2ccc(I)cc2F)n(C)c1=O` [AZD-8330], the Kd (in test [4]; in test [5]; on Misshapen-like kinase 1; on UMP-CMP kinase; in test [3]; in test [6]) was > 30 µM (inactive) throughout.

On to `CCn1c(C(=O)N(C2CC2)C2CC2)cc2c3c(ncn3C)c(Nc3cc(C)n(C)n3)nc21` [BMS-911543], for which the Kd (in test [4]; in test [5]; on UMP-CMP kinase; in test [6]) was > 30 µM (inactive) in each case.

On to `C#Cc1cccc(Nc2ncnc3cc(OC)c(OCCCCCCC(=O)NO)cc23)c1` [CUDC-101], for which the Kd (in test [1]; in test [4]; in test [5]; on Misshapen-like kinase 1; in test [3]; in test [6]) was > 30 µM (inactive) throughout.

Take `CCS(=O)(=O)N1CCN(c2ccc(Nc3ncc(C(N)=O)c(NC4CC4)n3)cc2)CC1` [Cerdulatinib Hydrochloride]: the Kd (in test [1]; at Misshapen-like kinase 1; in test [6]) was > 30 µM (inactive) in each case.

Turning to `Cn1cc(C2=C(c3cn(C4CCN(Cc5ccccn5)CC4)c4ccccc34)C(=O)NC2=O)c2ccccc21` [ENZASTAURIN], the Kd in test [2] was > 30 µM (inactive).

As for `Cc1nc2cc(-n3ncc(C(=O)c4cc5ccccc5[nH]4)c3N)ccc2[nH]1` [FGFR INHIBITOR DEBIO 1347], the Kd (in test [2]; at UMP-CMP kinase) was > 30 µM (inactive) throughout.

With `Cc1cccc(-c2nn3c(c2-c2ccnc4ccc(C(N)=O)cc24)CCC3)n1` [GALUNISERTIB], the Kd was > 30 µM (inactive) in test [2], > 30 µM (inactive) in test [5] and 0.018 µM on Misshapen-like kinase 1.

Take `C[C@@H](Oc1cc(-n2cnc3ccc(CN4CCN(C)CC4)cc32)sc1C(N)=O)c1ccccc1C(F)(F)F` [GSK-461364]: the Kd in test [1], in test [2], in test [3] and in test [6] was > 30 µM (inactive) in each case.

For the molecule `CCn1cc(-c2ccnc3[nH]c(-c4cccc(CN(C)C)c4)cc23)c(-c2ccc(NC(=O)N(C)C)cc2)n1` [GSK-1070916], the Kd in test [4], in test [2], in test [3] and in test [6] was > 30 µM (inactive) each time.

Consider `COc1ccc(S(=O)(=O)N(C(C)=O)c2ccccc2/C=C/c2cc[n+]([O-])cc2)cc1` [HMN-214], for which the Kd in test [1], in test [4], in test [2], in test [5], in test [3] and in test [6] was > 30 µM (inactive) each time.

For the molecule `CNC(=O)c1cccc2cc(Oc3ccnc4cc(OCC5(N)CC5)c(OC)cc34)ccc12` [LUCITANIB], the Kd (in test [5]; at Misshapen-like kinase 1; at UMP-CMP kinase; in test [3]) was > 30 µM (inactive) in each case.

Consider `CN(C[C@@H]1COCCO1)S(=O)(=O)Nc1ccc2ccc3ncc(-c4cnn(C)c4)cc3c(=O)c2c1` [MK-2461], for which the Kd on Misshapen-like kinase 1 and on UMP-CMP kinase was > 30 µM (inactive) each time.

Consider `Cn1cc(-c2cnc3ccc4ccc(CS(=O)(=O)NCc5ccccn5)cc4c(=O)c3c2)cn1` [MK-8033], for which the Kd (in test [4]; in test [5]; at UMP-CMP kinase; in test [6]) was > 30 µM (inactive) throughout.

For the molecule `Cc1[nH]c(/C=C2\C(=O)Nc3ccccc32)c(C)c1CCC(=O)O` [ORANTINIB], the Kd in test [4], in test [2], in test [3] and in test [6] was > 30 µM (inactive) throughout.

In the case of `O=C(NOCCO)c1cc(CN2OCCCC2=O)c(F)c(F)c1Nc1ccc(I)cc1F` [RO-4987655], the Kd in test [1], in test [2] and in test [6] was > 30 µM (inactive) each time.

As for `CN1CCN(CCOc2cc(OC3CCOCC3)c3c(Nc4c(Cl)ccc5c4OCO5)ncnc3c2)CC1` [SARACATINIB], the Kd in test [1], in test [4] and in test [5] was > 30 µM (inactive) throughout.

For the molecule `Cn1cc(-c2cnn3c(N)c(Br)c([C@@H]4CCCNC4)nc23)cn1` [SCH-900776], the Kd (in test [1]; in test [4]; on Misshapen-like kinase 1; at UMP-CMP kinase) was > 30 µM (inactive) in each case.

With `Cn1ncc(Cl)c1-c1cc(C(=O)N[C@H](CN)Cc2ccc(F)c(F)c2)oc1Cl` [UPROSERTIB], at UMP-CMP kinase, the Kd was > 30 µM (inactive).

Regarding `CC(C)c1cc(CNc2nc(Nc3cc(C4CC4)[nH]n3)cc(N3CCN(C)CC3)n2)on1` [XL-228], the Kd in test [5] and in test [3] was > 30 µM (inactive) in each case.

With `CN1C/C=C/CCOc2cccc(c2)-c2ccnc(n2)Nc2cccc(c2)C1` [ZOTIRACICLIB], in test [1], the Kd is > 30 µM (inactive).
